Key:
[1] = Environmental stability (heat, acid, base); assay type: physicochemical
[2] = system: B-cell non-Hodgkin lymphoma; assay: Single agent (monotherapy) clinical study in B-cell non-Hodgkin lymphoma patients; assay type: in vivo
[3] = Safety in single dose studies in healthy subjects; assay type: in vivo, human

Row | Compound | environmental instabilities (heat, acid, base) [1] | patients with stable disease continuing on treatment ([2]; B-cell non-Hodgkin lymphoma, monotherapy, as of Sep. 11, 2012) | patients with decreased lymph node size ([2]; evaluable B-NHL patients, monotherapy) | maximum tolerated dose (MTD) ([2]; single agent, up to 750 mg PO QD) | safety [3]
1 | C=CC(=O)Nc1cccc(Nc2nc(Nc3ccc(OCCOC)cc3)ncc2F)c1.O=S(=O)(O)c1ccccc1 [Compound 1 besylate, N-(3-(5-fluoro-2-(4-(2-methoxyethoxy)phenylamino)pyrimidin-4-ylamino)phenyl)acrylamide benzenesulfonic acid salt] | no environmental instabilities | 9 out of 17 | Six of eleven | – | –
2 | C=CC(=O)Nc1cccc(Nc2nc(Nc3ccc(OCCOC)cc3)ncc2F)c1 [Compound 1, N-(3-(5-fluoro-2-(4-(2-methoxyethoxy)phenylamino)pyrimidin-4-ylamino)phenyl)acrylamide] | – | – | – | has not yet been reached | adequate safety
